Data published in ChEMBL document CHEMBL5584248, “Synthesis and biological characterization of an orally bioavailable lactate dehydrogenase-A inhibitor against pancreatic cancer” (Eur J Med Chem, 2024).

Assays:
[1] = molecular target: L-lactate dehydrogenase A chain (Homo sapiens, UniProt P00338); assay: Inhibition of human LDH-A incubated for 10 mins in presence of […] by fluorescence based reader assay
[2] = test system: PANC-1; assay: Antiproliferative activity against human PANC-1 cells incubated for 48 hrs by Hoechst 33342 and SYTOX green staining based confocal imaging analysis; format: functional, cell-based; details: PANC-1, 48 h
[3] = Cytotoxicity against HPNEs incubated for 48 hrs by Hoechst 33342 and SYTOX green staining based confocal imaging analysis; format: toxicity, cell-based; details: human, HPNE cells
[4] = test system: MIA PaCa-2; assay: Antiproliferative activity against human MIA PaCa-2 cells incubated for 48 hrs by Hoechst 33342 and SYTOX green staining based confocal imaging analysis; format: functional, cell-based; details: MIA PaCa-2, 48 h
[5] = Antiproliferative activity against mouse FC-1199 cells incubated for 48 hrs by Hoechst 33342 and SYTOX green staining based confocal imaging analysis; format: functional, cell-based; details: FC-1199, 48 h
[6] = molecular target: L-lactate dehydrogenase B chain (Homo sapiens, UniProt P07195); assay: Inhibition of human LDH-B incubated for 10 mins in presence of […] by fluorescence based reader assay
Chain of L-lactate dehydrogenase B chain (P07195 whole entry): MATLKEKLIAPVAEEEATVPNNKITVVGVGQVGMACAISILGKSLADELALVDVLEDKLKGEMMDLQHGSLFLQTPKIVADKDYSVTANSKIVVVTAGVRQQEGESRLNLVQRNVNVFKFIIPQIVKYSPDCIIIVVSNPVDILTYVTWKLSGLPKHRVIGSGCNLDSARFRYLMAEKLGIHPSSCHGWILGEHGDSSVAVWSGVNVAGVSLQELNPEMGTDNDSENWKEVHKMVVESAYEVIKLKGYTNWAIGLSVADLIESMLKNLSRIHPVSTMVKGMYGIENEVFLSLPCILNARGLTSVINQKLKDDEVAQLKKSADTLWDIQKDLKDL

IC50 [1] [µM]	SMILES	further results
54.5	COc1ccc(C(CC(=O)Nc2ccc(C(=O)c3nccn3C)cc2)C(=O)O)cc1 (stereo not given)	–
–	COC(=O)C(CC(=O)Nc1ccc(C(=O)c2nccn2C)cc1)c1ccc(Cl)cc1 (stereo not given)	IC50 [2]: > 50 µM; IC50 at 48 h [3]: 26.5 µM; IC50 [4]: 24.2 µM; IC50 [5]: 23.4 µM
50	COC(=O)C(CC(=O)Nc1ccc(C(=O)c2nccn2C)cc1)c1ccc(OC)cc1 (stereo not given)	–
> 100	O=C(O)CC(NC(=O)CCc1ccccc1)c1cccc(Cl)c1 (stereo not given)	IC50 [6]: > 100 µM
66.4	COC(=O)C(CC(=O)Nc1ccc(N2CCN(C)CC2)cc1)c1ccc(C(F)(F)F)cc1 (stereo not given)	–
15.7	COC(=O)C(CC(=O)Nc1ccc(C(=O)c2ccccc2)cc1)c1ccc(C(F)(F)F)cc1 (stereo not given)	–
0.19	Cn1ccnc1C(=O)c1ccc(NC(=O)CC(C(=O)O)c2ccc(Cl)cc2)cc1 (stereo not given)	–
> 100	O=C(CC(C(=O)O)c1ccc(C(F)(F)F)cc1)Nc1ccc(N2CCOCC2)c(Cl)c1 (stereo not given)	IC50 [6]: > 100 µM
79.3	O=C(CC(C(=O)O)c1ccc(C(F)(F)F)cc1)Nc1ccc(C(=O)c2ccccc2)cc1 (stereo not given)	–
37.8	COC(=O)C(CC(=O)Nc1ccc(C(=O)c2nccn2C)cc1)c1ccc(F)cc1 (stereo not given)	–
